Assays:
Assay type in all cases: cell-based, human
[1] = test system: DNA methyltransferase (DNMT); assay: DNA methyltransferase activity assay (EpiQuik kit, nuclear extracts of treated PC-3 cells); conditions: 72 hours, 5 μM (FIG. 7 legend; method says 2 μM)
Description: Black bars: PC-3 cells were treated 72 hours with either mahanine or compound 6a at 5 μM or compound 6, 7, 7a, 8, or 9 at 15 μM and then assayed for DNMT activity using the DNMT activity kit from Epigentek. Data are mean of three independent experiments ±SEM. Grey bars: Densitometry from RT-PCR blot where the amount of RASSF1A mRNA re-expressed by mahanine treatment is normalized to 100%.
DNA methyltransferase activity assay. PC-3 cells were plated in complete growth media, treated with either mahanine or compound 6a at 2 μM or compound 6, 7, 7a, 8, 9, 10 at 15 μM for 3 days and then harvested. Nuclear extracts were prepared according to manufacturer's protocol (Nuclear extraction kit, Epigentek). DNMT activity was measured using an EpiQuik DNA methyltransferase activity assay kit (Epigentek). Results were expressed as percent DNMT activity compared to the DMSO control as 100%.
The levels of DNMT activity in treated versus untreated prostate cancer cells were measured using a DNMT assay kit from Epigentek. […] These reduced DNMT activities correlate with the pattern of RASSF1A induction described above (FIG. 7, grey bars). The data imply that inhibition of DNMT prevents hypermethylation of the RASSF1A promoter region and consequently restores RASSF1A.

[2] = test system: cyclin D1; assay: RT-PCR of cyclin D1 mRNA in treated PC-3 cells; conditions: 5 μM, 24 hours
Description: Representative photograph of an experiment repeated thrice. PC-3 cells were treated 24 hours with either 15 μM for compounds 6, 7, 7a, 8, 9, 10 or 5 μM for compound KED-4-69 (compound 6a) before RNA extraction and RT-PCR amplification.
Reverse Transcriptase-polymerase Chain Reaction (RT-PCR). From PC-3 cells incubated 24 hours with either 15 μM of compound 6, 7, 7a, 8, 9, 10 or 5 μM of KED-4-69 (compound 6a), RNA was extracted with TRIzol solution (Invitrogen, Carlsbad, Calif.) and genes of interest were amplified using 500 ng of total RNA reverse-transcribed to cDNA using a Superscript II kit (Invitrogen) with random hexamers. Human-specific primers were designed using the Primer Quest program and purchased from Integrated DNA Technologies, Inc. (Coralville, Iowa). Their sequences and product band sizes are: cyclin D1 forward primer 5′-[…]-3′ (SEQ ID NO:1), cyclin D1 reverse primer 5′-[…]-3′ (SEQ ID NO:2) (475 bp) and GAPDH forward primer: 5′-CCA […]-3′ (SEQ ID NO:3), GAPDH reverse primer: 5′-TCTAGACGGCAG GTCAGGTCCACC-3′ (SEQ ID NO:4) (598 bp). PCRs were initiated at 94° C. for 2 min, followed by 28 cycles of 94° C. for 1 min, 1 min annealing temperature, 72° C. for 1 min, and final extension at 72° C. for 5 min. The annealing temperature for cyclin D1 and GAPDH was 60° C. Primers and PCR conditions for RASSF1A are used as described by Rong et al. (Oncogene. 2004, 23, 8216-8230). After amplification, PCR products were separated on 1.5% agarose gels and visualized by ethidium bromide fluorescence using the Fuji LAS-1000 Imager. Images were captured and imported to Adobe Photoshop. Band intensities were quantified by using ImageJ software (NIH, Bethesda, Md.).
It has been reported that mRNA levels of RASSF1A correlate to its protein expression levels (Rong et al. Oncogene, 2004, 23: 8216-8230). To investigate the effects of the synthetic compounds on RASSF1A and cyclin D1 expression, levels of the respective mRNAs in treated cells compared to control were analyzed (FIG. 3). […] Because overexpression of cyclin D1 is associated with tumorigenicity and proliferation in a variety of tumors, including prostate cancers, this downregulation provides a cancer treatment method (Chen, Y. et al. Oncogene. 1998, 16, 1913-1920; Musgrove, E. A. et al. Proc. Natl. Acad. Sci. USA. 1994, 91, 8022-8026).

[3] = test system: PC-3 cells; assay: BrdU labeling, DNA synthesis (Cell Proliferation ELISA BrdU); conditions: 5 μM compound, 24 hours
Description: PC-3 cells were plated in 96-well plates and treated with 5 μM of compound. After 24 hours, the cells were assayed for BrdU labeling using the Cell Proliferation ELISA BrdU kit from Roche; background BrdU incorporation levels (absent anti-BrdU-peroxidase solution) were subtracted and values were normalized to those of control untreated cells.
BrdU Labeling. For the BrdU experiment, PC-3 cells were seeded in 96-well plates at a density of 2×10^3 cells/well, treated with 5 μM of compound for 24 hr and assayed BrdU using the Cell Proliferation ELISA BrdU (chemiluminescence) (Roche Diagnostics, IN) kit according to the manufacturer's protocol. Briefly, 10 μL of 100 μM BrdU labeling solution was added to the cultured cells and were incubated for 1 hr at 37° C., the labeling solution was removed and the FixDenat solution provided with the kit was added for 30 min and incubated at room temperature. Cells were then incubated with anti-BrdU conjugated to peroxidase (1:1500) for 60 min. Finally, the plates were washed and 100 μL of substrate solution was added to each well, and the light emission was measured using a microplate luminometer (Harta Instruments, Inc., Gaithersburg, Md.).
To assess the levels of DNA synthesis within cells treated with mahanine compared to those treated with compounds 6-10, cultured cells were treated according to standard procedure with 5-bromo-2-deoxy-uridine (BrdU) after 24 hours of treatment (FIG. 2).

## COc1ccc2c(c1)[nH]c1c(C)c(OS(=O)(=O)c3cccc4c(N(C)C)cccc34)ccc12 [Compound 6a, 7-Methoxy-1-methyl-9H-carbazol-2-yl 5-(dimethylamino)naphthalene-1-sulfonate]
[1]
  DNMT activity versus DMSO control: most potent inhibition
[2]
  cyclin D1 mRNA level versus control: corresponding decrease in cyclin D1
[3]
  DNA synthetic ability (BrdU labeling): decrease in DNA synthetic ability

Reference: patent US10457639B2, “Fluorescent regulators of RASSF1A expression and human cancer cell proliferation” (GEORGETOWN UNIVERSITY, priority 2008, dated 2019)
